Counter-ions that a name gives are not always drawn.
Columns and labels:
[1] = test system: SW1990 cells; assay: Cell viability (DAPI nuclei count, high content imaging); assay type: cell-based; settings: Homo sapiens; parental SW1990; read-out: IC50 for GEM (viability)
Procedure: (§1) Cell viability, colony formation, sphere formation and growth curve. To quantify viability, cells were plated into 96-well plates (6000/well) one night before treatment. […] After fixation, cell nuclei were stained with DAPI (Invitrogen). Plates were analyzed using MetaXpress High Content Image Acquisition and Analysis System (Molecular Devices).

[2] = test system: SW1990GR cells; assay: as above; assay type: cell-based; settings: GEM-resistant line, read-out: IC50 for GEM (viability)
Procedure: To establish GR cell lines, cells were first cultured with 10 nM GEM till cell growth became stable. […] Once cell growth became stable in 100 nM GEM, cells were expanded in 100 nM GEM and used in assays.
as §1

[3] = test system: A549 cell line; assay: Flow cytometry of TRA-1-81+ cells; assay type: cell-based
Procedure: (§2) Flow cytometry. TRA-1-60 PerCP-efluor710 (eBioscience, 1:50) and TRA-1-81 PE (eBioscience, 1:100) were used. Cells were blocked with 5% FBS plus mouse IgM isotype control antibody (eBioscience, 1:100) at room temperature for 15 min, then stained on ice for 30 min. Stained cells were resuspended in PBS containing 300 nM DAPI and proceeded to analysis or sorting. Cell apoptosis was analyzed with FITC-AnnexinV labeling reagent (BD). Flow cytometry analysis was carried out on BD FACS Calibur with FlowJo 9.8 software. Sorting was performed with FACSVantage SE (Becton Dickinson).

[4] = test system: DU145 cell line; assay: Flow cytometry of TRA-1-81+ cells; assay type: cell-based; settings: DU145; flow cytometry
Procedure: as §2

[5] = test system: HCT116 cell line; assay: Flow cytometry of TRA-1-81+ cells; assay type: cell-based; settings: HCT116; flow cytometry
Procedure: as §2

[6] = test system: HT29 cell line; assay: Flow cytometry of TRA-1-81+ cells; assay type: cell-based
Procedure: as §2

[7] = test system: RKO cell line; assay: Flow cytometry of TRA-1-81+ cells; assay type: cell-based
Procedure: as §2

[8] = test system: TRA-1-81+ SW1990 cells; assay: Flow cytometry of TRA-1-81+ cells; assay type: cell-based; settings: SW1990; 5 days; GEM 50, 100 or 250 nM; flow cytometry
Procedure: as §2

[9] = test system: SW1990 xenograft tumors; assay: Luciferase-labeled SW1990 xenograft in nude mice; assay type: in vivo
Procedure: CYM suppresses TRA-1-60 expression and blocks tumor growth in vivo. Next it was sought to validate the effects of CYM in vivo, using a xenograft model with luciferase-labeled SW1990 cells propagated in nude mice. Tumor-harboring mice were separated into 4 groups and treated with PBS (control), 2 mg/kg CYM, 50 mg/kg GEM, or 2 mg/kg CYM plus 50 mg/kg GEM through intraperitoneal injections twice per week. Luciferase intensity was quantified twice per week and normalized with the value obtained from the starting day. […] Consistent with imaging, of the four groups, mice treated with GEM plus CYM generated xenograft tumors with the smallest size (FIG. 6C) and weight (FIG. 6D).
(§3) Tissue samples were fixed with 4% paraformaldehyde overnight at 4° C., washed with 70% ethanol and then embedded in paraffin. After De-paraffin and rehydration, antigen retrieval was preceded in hot antigen retrieving buffer with a normal-pressure steamer for 30 min. blocking was proceeded 1 hour at room temperature in PBS containing 1% horse serum. Primary antibody was stained overnight at 4° C. in PBS plus 0.5% Triton X-100 and 5% horse serum. Secondary antibody was incubated at room temperature for 1.5 hours.
Mouse Procedures. To assess in vivo effects of Cymarin (CYM), Luciferase-labelled SW1990 cells were transplanted to nude mice subcutaneously. Each mouse received four injections (5×10^5 cells/site). 12 days later, mice were randomly separated into 4 groups and treated with PBS (control), GEM (50 mg/kg bodyweight), CYM (2 mg/kg bodyweight) or GEM (50 mg/kg bodyweight) plus CYM (2 mg/kg bodyweight) twice weekly via intraperitoneal injection. Image acquisition was performed twice weekly with Xtreme Optical and X-ray small animal imaging system. Luciferin potassium salt (Regis), substrate of luciferase, was applied at 2 mg/25 g bodyweight in 150 μl PBS. Isoflurane (Henry Schein) was used for anesthesia during imaging.

[10] = test system: SW1990 xenograft tumors; assay: GEM-resistant SW1990 xenograft passaged in nude mice; settings: 50 mg/kg GEM i.p. twice a week, 3 passages in vivo, vs PBS control
Procedure: Whether the epitope of TRA-1-60 and TRA-1-81 antibodies also enriches CCCs in vivo, with xenograft tumors in nude mice derived from SW1990 cells implanted subcutaneously, was examined. Mice carrying tumors were randomly separated into two groups: one was treated with 50 mg/kg GEM via intraperitoneal injection twice a week for 4 weeks; the other was treated with the same volume of PBS as control. After 3 passages in vivo (˜6 months), the control and GR xenograft tumors were analyzed with immunofluorescence (FIG. 1K).
as §3

[11] = test system: primary human xenograft tumor; assay: Patient derived pancreatic adenocarcinoma xenograft in nude mice; assay type: in vivo; settings: 50 mg/kg GEM twice weekly, one month; not in control tumors
Procedure: To examine whether TRA-1-60 expression correlates with chemotherapy treatment in primary tumors, a human pancreatic adenocarcinoma specimen was freshly collected after surgery, transplanted to nude mice and expanded subcutaneously. Mice carrying the primary human xenograft tumor were separated into two groups: one group was treated with 50 mg/kg GEM twice weekly while the other group received the same volume of PBS as control. After one month, xenograft tumors were stained with TRA-1-60 antibody. TRA-1-60 staining was detected in GEM-treated xenograft tumors but not control xenograft tumors (FIG. 7C, D), confirming that TRA-1-60 expression is positively correlated with chemoresistance.
as §3

[12] = test system: TRA-1-60+ SW1990GR cells; assay: High content screen / immunofluorescent staining of TRA-1-60+ cells; assay type: cell-based; settings: SW1990GR
Procedure: Immunofluorescent staining. Primary antibodies were TRA-1-60 antibody (BD, 1:200), biotin conjugated TRA-1-60 antibody (eBioscience, 1:200). Secondary antibodies were donkey anti-mouse Alexa-efluor594 (Life technologies, 1:500) or streptavidin conjugated Alexa Fluor® 594 (Life technologies, 1:200).
Cells were fixed with 10% formalin for 20 min at room temperature. After 1 hour blocking in PBS with 5% horse serum and 0.3% triton-X100, primary antibodies were added to cells and incubated overnight at 4° C. Secondary antibody incubation was 1.5 hours at room temperature.
Chemical library screening. The Prestwick library of FDA approved drugs (˜1280 chemicals) plus a collection of drugs in clinical trials was used for the screen on SW1990GR cells.
For screening, SW1990GR cells were plated in 384-well plates (5000 cells/well). After overnight incubation, chemicals were added at 1 μM or 10 μM in duplicate. After 5 days of treatment, plates were stained with TRA-1-60 antibody and analyzed with MetaXpress High Content Image Acquisition and Analysis System (Molecular Devices). Wells treated with DMSO were set as control. The reduction was calculated by subtracting the percentage of TRA-1-60^+ cells in the chemical-treated wells from that of control wells. Standard deviation of TRA-1-60^+ percentage in control wells was calculated and 3-fold of this value was taken as threshold to pick up the primary hit.

## Nc1ccn([C@@H]2O[C@H](CO)[C@@H](O)C2(F)F)c(=O)n1 [GEM, Gemcitabine hydrochloride]
[1]
  IC50: 9.6 ± 3.2 nM
[2]
  IC50: 59.4 ± 5.3 nM
[3]
  TRA-1-81+ cell population after acute drug treatment: significant increase
[4]
  TRA-1-81+ cell population after acute GEM treatment: significant increase
[5]
  TRA-1-81+ cell population after acute GEM treatment: significant increase
[6]
  TRA-1-81+ cell population after acute GEM treatment: significant increase
[7]
  TRA-1-81+ cell population after acute GEM treatment: significant increase
[8]
  TRA-1-81+ cell population after acute drug treatment: significant increase
[9]; 3 weeks, i.p. twice per week, GEM 50 mg/kg, CYM 2 mg/kg
  tumor growth (luciferase intensity): grew more slowly
[9]; GEM-treated tumors without CYM, immunofluorescence
  percentage of TRA-1-60+ cells in xenograft tumors: ~27%
[10]
  percentage of TRA-1-60+ cells in GR xenograft tumors: significantly increased
[11]
  TRA-1-60 staining in patient derived xenograft tumors: detected

## Nc1nc2[nH]cc(CCc3ccc(C(=O)N[C@@H](CCC(=O)O)C(=O)O)cc3)c2c(=O)[nH]1 [PMX, Pemetrexed disodium heptahydrate]
[3]
  TRA-1-81+ cell population after acute drug treatment: significant enhancement
[8]
  TRA-1-81+ cell population after acute drug treatment: highly enriched

## CCc1c2c(nc3ccc(OC(=O)N4CCC(N5CCCCC5)CC4)cc13)-c1cc3c(c(=O)n1C2)COC(=O)[C@]3(O)CC [CPT-11, Irinotecan hydrochloride]
[3]
  TRA-1-81+ cell population after acute drug treatment: significant enhancement
[8]
  TRA-1-81+ cell population after acute drug treatment: highly enriched

## C[C@@H]1O[C@@H](O[C@H]2C[C@@H](O)[C@]3(CO)[C@H]4[C@H](O)C[C@]5(C)[C@@H](C6=CC(=O)OC6)CC[C@]5(O)[C@@H]4CC[C@]3(O)C2)[C@H](O)[C@H](O)[C@H]1O [Ouabain]
[12]
  validation of primary hit: able to be validated

From patent US20240277744A1, “TREATMENT OF CHEMORESISTANT CANCER CELLS” (Cornell University, priority 2023, published 2024)
